From ChEMBL document CHEMBL4346757, “Synthesis and biological evaluation of 7-methoxy-1-(3,4,5-trimethoxyphenyl)-4,5-dihydro-2H-benzo[e]indazoles as new colchicine site inhibitors” (Bioorg Med Chem Lett, 2019)

Experiments:
Format in all cases: functional
COLO 205 = assay: Growth inhibition of human COLO205 cells assessed as cell growth at 0.01 uM after 48 hrs by SRB assay relative to control; conditions: COLO 205, 48 h, read-out: Activity
KM12 = assay: Growth inhibition of human KM12 cells assessed as cell growth at 1 uM after 48 hrs by SRB assay relative to control; conditions: KM12, 48 h, read-out: Activity
SF-268 [1] = assay: Growth inhibition of human SF268 cells assessed as cell growth at 1 uM after 48 hrs by SRB assay relative to control; conditions: SF-268, 48 h, read-out: Activity
HCT-116 [2] = assay: Growth inhibition of human HCT116 cells assessed as cell growth at 100 uM after 48 hrs by SRB assay relative to control; conditions: HCT-116, 48 h, read-out: Activity
NCI-H23 = assay: Growth inhibition of human NCI-H23 cells assessed as cell growth at 0.1 uM after 48 hrs by SRB assay relative to control; conditions: NCI-H23, 48 h, read-out: Activity
UACC-257 = assay: Growth inhibition of human UACC257 cells assessed as cell growth at 1 uM after 48 hrs by SRB assay relative to control; conditions: UACC-257, 48 h, read-out: Activity
Hs-578T = assay: Growth inhibition of human Hs 578T cells assessed as cell growth at 1 uM after 48 hrs by SRB assay relative to control; conditions: read-out: Activity
OVCAR-5 = assay: Growth inhibition of human OVCAR5 cells assessed as cell growth at 10 uM after 48 hrs by SRB assay relative to control; conditions: OVCAR-5, 48 h, read-out: Activity
UO-31 = assay: Cytotoxicity against human UO31 cells assessed as growth inhibition after 48 hrs by SRB assay; conditions: UO-31, 48 h
OVCAR-8 [3] = assay: Growth inhibition of human OVCAR8 cells assessed as cell growth at 10 uM after 48 hrs by SRB assay relative to control; conditions: OVCAR-8, 48 h, read-out: Activity
SF-295 = assay: Growth inhibition of human SF295 cells assessed as cell growth at 0.01 uM after 48 hrs by SRB assay relative to control; conditions: SF-295, 48 h, read-out: Activity
HOP-62 = assay: Growth inhibition of human HOP62 cells assessed as cell growth at 10 uM after 48 hrs by SRB assay relative to control; conditions: HOP-62, 48 h, read-out: Activity
IGROV-1 = assay: Growth inhibition of human IGROV1 cells assessed as cell growth at 0.1 uM after 48 hrs by SRB assay relative to control; conditions: IGROV-1, 48 h, read-out: Activity
SK-OV-3 = assay: Growth inhibition of human SKOV3 cells assessed as cell growth at 1 uM after 48 hrs by SRB assay relative to control; conditions: SK-OV-3, 48 h, read-out: Activity
EKVX = assay: Cytotoxicity against human EKVX cells assessed as growth inhibition after 48 hrs by SRB assay
RPMI-8226 = assay: Growth inhibition of human RPMI8226 cells assessed as cell growth at 0.01 uM after 48 hrs by SRB assay relative to control; conditions: RPMI-8226, 48 h, read-out: Activity
NCI-H522 [4] = assay: Growth inhibition of human NCI-H522 cells assessed as cell growth at 0.1 uM after 48 hrs by SRB assay relative to control; conditions: NCI-H522, 48 h, read-out: Activity
T47D = assay: Growth inhibition of human T47D cells assessed as cell growth at 10 uM after 48 hrs by SRB assay relative to control; conditions: read-out: Activity
SN12C = assay: Growth inhibition of human SN12C cells assessed as cell growth at 100 uM after 48 hrs by SRB assay relative to control; conditions: read-out: Activity
SK-MEL-2 = assay: Growth inhibition of human SK-MEL-2 cells assessed as cell growth at 0.1 uM after 48 hrs by SRB assay relative to control; conditions: SK-MEL-2, 48 h, read-out: Activity
NCI-H522 [5] = assay: Growth inhibition of human NCI-H522 cells assessed as cell growth at 100 uM after 48 hrs by SRB assay relative to control; conditions: NCI-H522, 48 h, read-out: Activity
A498 = assay: Growth inhibition of human A498 cells assessed as cell growth at 10 uM after 48 hrs by SRB assay relative to control; conditions: A498, 48 h, read-out: Activity
SF-268 [6] = assay: Growth inhibition of human SF268 cells assessed as cell growth at 0.1 uM after 48 hrs by SRB assay relative to control; conditions: SF-268, 48 h, read-out: Activity
HOP-92 = assay: Growth inhibition of human HOP92 cells assessed as cell growth at 10 uM after 48 hrs by SRB assay relative to control; conditions: HOP-92, 48 h, read-out: Activity
OVCAR-8 [7] = assay: Cytotoxicity against human OVCAR8 cells assessed as growth inhibition after 48 hrs by SRB assay; conditions: OVCAR-8, 48 h
UACC-62 = assay: Growth inhibition of human UACC62 cells assessed as cell growth at 100 uM after 48 hrs by SRB assay relative to control; conditions: UACC-62, 48 h, read-out: Activity
MOLT-4 = assay: Cytotoxicity against human MOLT4 cells assessed as growth inhibition after 48 hrs by SRB assay; conditions: MOLT-4, 48 h
MDA-MB-231 = assay: Growth inhibition of human MDA-MB-231/ATCC cells assessed as cell growth at 10 uM after 48 hrs by SRB assay relative to control; conditions: MDA-MB-231, 48 h, read-out: Activity
MDA-MB-468 = assay: Growth inhibition of human MDA-MB-468 cells assessed as cell growth at 0.1 uM after 48 hrs by SRB assay relative to control; conditions: MDA-MB-468, 48 h, read-out: Activity
HCT-116 [8] = assay: Growth inhibition of human HCT116 cells assessed as cell growth at 1 uM after 48 hrs by SRB assay relative to control; conditions: HCT-116, 48 h, read-out: Activity
PC-3 = assay: Growth inhibition of human PC3 cells assessed as cell growth at 1 uM after 48 hrs by SRB assay relative to control; conditions: PC-3, 48 h, read-out: Activity
786-0 = assay: Growth inhibition of human 786-0 cells assessed as cell growth at 0.01 uM after 48 hrs by SRB assay relative to control; conditions: 786-0, 48 h, read-out: Activity
[9] = read-out: LC50 (the source's name)
[10] = read-out: pLC50 (the source's name) (converted)

COc1ccc2c(c1)CCc1n[nH]c(-c3cc(OC)c(OC)c(OC)c3)c1-2
growth at 0.01 µM (COLO 205): -23% | growth at 1 µM (KM12): 5% | growth at 1 µM (SF-268 [1]): 29% | growth at 100 µM (HCT-116 [2]): -66% | growth at 0.1 µM (NCI-H23): 5% | growth at 1 µM (UACC-257): 62% | growth at 1 µM (Hs-578T): 18% | growth at 10 µM (OVCAR-5): 31% | GI50 (UO-31; read-out: GI50): < 0.01 µM | CC50 (UO-31; [9]): > 100 µM | TGI (UO-31; read-out: TGI): 17.3 µM | GI50 (UO-31; read-out: pGI50 (converted)): < 0.01 µM | CC50 (UO-31; [10]): > 100 µM | TGI (UO-31; read-out: pTGI (converted)): 17.4 µM | growth at 10 µM (OVCAR-8 [3]): 9% | growth at 0.01 µM (SF-295): 3% | growth at 10 µM (HOP-62): 3% | growth at 0.1 µM (IGROV-1): 29% | growth at 1 µM (SK-OV-3): -5% | CC50 (EKVX; [9]): > 100 µM | TGI (EKVX; read-out: TGI): 39 µM | CC50 (EKVX; [10]): > 100 µM | TGI (EKVX; read-out: pTGI (converted)): 38.9 µM | growth at 0.01 µM (RPMI-8226): 45% | growth at 0.1 µM (NCI-H522 [4]): -18% | growth at 10 µM (T47D): 35% | growth at 100 µM (SN12C): -47% | growth at 0.1 µM (SK-MEL-2): 40% | growth at 100 µM (NCI-H522 [5]): -66% | growth at 10 µM (A498): -17% | growth at 0.1 µM (SF-268 [6]): 30% | growth at 10 µM (HOP-92): 42% | GI50 (OVCAR-8 [7]; read-out: GI50): < 0.01 µM | LC50 (concentration killing 50% of cells) (OVCAR-8 [7]; read-out: LC50): > 100 µM | TGI (OVCAR-8 [7]; read-out: TGI): 15.4 µM | GI50 (OVCAR-8 [7]; read-out: pGI50 (converted)): < 0.01 µM | LC50 (concentration killing 50% of cells) (OVCAR-8 [7]; read-out: pLC50 (converted)): > 100 µM | TGI (OVCAR-8 [7]; read-out: pTGI (converted)): 15.5 µM | growth at 100 µM (UACC-62): -76% | GI50 (MOLT-4; read-out: GI50): < 0.01 µM | CC50 (MOLT-4; [9]): > 100 µM | TGI (MOLT-4; read-out: TGI): > 100 µM | GI50 (MOLT-4; read-out: pGI50 (converted)): < 0.01 µM | CC50 (MOLT-4; [10]): > 100 µM | TGI (MOLT-4; read-out: pTGI): > 100 µM | growth at 10 µM (MDA-MB-231): 33% | growth at 0.1 µM (MDA-MB-468): -2% | growth at 1 µM (HCT-116 [8]): 1% | growth at 1 µM (PC-3): 18% | growth at 0.01 µM (786-0): 24%
